Experimental data reported in ChEMBL document CHEMBL1201862, “PubChem BioAssay data set” (2004).
Activity calls are given as the source filed them.

Tests used:
[1] = cytotoxicity in HEK-293T cells, dose response, cytotoxicity control for BCR NF-kB inhibitor project, luminescence, B-cell screen hits (AID 489021); format: functional, cell-based;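 note: HEK-293T cells carrying an NF-kB luciferase reporter; cells exposed to compound for about 14 hours before viability readout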
[2] = target: T1, Calpain-2 catalytic subunit (Sus scrofa, UniProt P43367); test: pig calpain II inhibitor potency, dose response, biochemical, fluorogenic peptide substrate (AID 1420); format: functional
T1 sequence (P43367 whole entry): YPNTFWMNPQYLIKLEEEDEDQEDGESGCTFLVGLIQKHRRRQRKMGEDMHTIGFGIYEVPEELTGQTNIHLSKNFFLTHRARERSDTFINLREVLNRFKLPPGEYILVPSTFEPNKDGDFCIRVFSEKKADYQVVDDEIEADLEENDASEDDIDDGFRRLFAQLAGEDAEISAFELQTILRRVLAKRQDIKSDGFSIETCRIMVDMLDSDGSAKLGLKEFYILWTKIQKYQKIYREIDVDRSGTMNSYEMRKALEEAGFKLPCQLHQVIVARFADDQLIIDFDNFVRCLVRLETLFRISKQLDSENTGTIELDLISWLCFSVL

[3] = target: Induced myeloid leukemia cell differentiation protein Mcl-1 (Homo sapiens, UniProt Q07820); format: functional
[4] = microbe, parasite or virus in culture; format: functional; settings: Mycobacterium tuberculosis
[5] = Luminescence Cell-Based Dose Retest to Confirm Inhibitors of Cancer Stem Cells. [Related pubchem assays (depositor defined):AID2717, AID2721]; format: functional; settings: Homo sapiens
[6] = target: T2, Ubiquitin-conjugating enzyme E2 N (Homo sapiens, UniProt P61088); format: functional;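 note: Dose-response confirmation in a TR-FRET assay detecting UBC13-driven polyubiquitin chain formation, inhibition measured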
T2 sequence (P61088 whole entry): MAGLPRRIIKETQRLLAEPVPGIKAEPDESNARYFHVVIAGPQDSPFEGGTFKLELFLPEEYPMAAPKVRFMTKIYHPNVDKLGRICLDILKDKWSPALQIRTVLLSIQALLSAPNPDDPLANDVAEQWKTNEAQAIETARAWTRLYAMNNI

[7] = target: T3, Replicative DNA helicase DnaB (Mycobacterium tuberculosis, UniProt P9WMR3); test: DnaB intein splicing inhibitors, dose response, biochemical, cell-free fluorescence (AID 449749); format: functional
T3 sequence (P9WMR3 whole entry): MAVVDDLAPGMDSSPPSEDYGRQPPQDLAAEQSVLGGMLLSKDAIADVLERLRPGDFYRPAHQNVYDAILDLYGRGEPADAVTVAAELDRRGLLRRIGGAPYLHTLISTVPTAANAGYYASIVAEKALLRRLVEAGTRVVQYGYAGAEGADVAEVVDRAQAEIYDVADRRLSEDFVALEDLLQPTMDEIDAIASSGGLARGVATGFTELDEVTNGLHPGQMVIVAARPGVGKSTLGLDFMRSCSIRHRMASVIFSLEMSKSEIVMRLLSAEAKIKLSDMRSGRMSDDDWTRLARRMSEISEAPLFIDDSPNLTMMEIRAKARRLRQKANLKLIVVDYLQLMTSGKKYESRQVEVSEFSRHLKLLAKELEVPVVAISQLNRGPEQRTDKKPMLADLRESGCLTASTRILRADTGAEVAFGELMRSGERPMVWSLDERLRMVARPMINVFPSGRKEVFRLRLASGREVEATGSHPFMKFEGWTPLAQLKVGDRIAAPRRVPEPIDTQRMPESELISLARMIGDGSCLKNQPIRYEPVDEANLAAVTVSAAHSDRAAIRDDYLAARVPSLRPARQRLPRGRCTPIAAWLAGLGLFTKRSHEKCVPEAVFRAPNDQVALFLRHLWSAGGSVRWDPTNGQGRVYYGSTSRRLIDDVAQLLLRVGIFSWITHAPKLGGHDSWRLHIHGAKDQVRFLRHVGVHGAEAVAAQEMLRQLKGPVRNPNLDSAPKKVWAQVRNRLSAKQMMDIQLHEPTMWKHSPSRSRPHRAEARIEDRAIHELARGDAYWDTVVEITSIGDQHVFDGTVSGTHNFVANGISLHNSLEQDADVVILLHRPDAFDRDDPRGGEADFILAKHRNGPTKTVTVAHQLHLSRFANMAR

Protein RecA = target: T4, Protein RecA (Mycobacterium tuberculosis, UniProt P9WHJ3); test: Fluorescence Cell-Free Homogeneous Dose Retest to Identify Inhibitors of RecA-Intein Splicing Activity. [Related pubchem assays (depositor defined):AID2097, AID2223, AID489010, AID492950]; format: functional
T4 sequence (P9WHJ3 whole entry): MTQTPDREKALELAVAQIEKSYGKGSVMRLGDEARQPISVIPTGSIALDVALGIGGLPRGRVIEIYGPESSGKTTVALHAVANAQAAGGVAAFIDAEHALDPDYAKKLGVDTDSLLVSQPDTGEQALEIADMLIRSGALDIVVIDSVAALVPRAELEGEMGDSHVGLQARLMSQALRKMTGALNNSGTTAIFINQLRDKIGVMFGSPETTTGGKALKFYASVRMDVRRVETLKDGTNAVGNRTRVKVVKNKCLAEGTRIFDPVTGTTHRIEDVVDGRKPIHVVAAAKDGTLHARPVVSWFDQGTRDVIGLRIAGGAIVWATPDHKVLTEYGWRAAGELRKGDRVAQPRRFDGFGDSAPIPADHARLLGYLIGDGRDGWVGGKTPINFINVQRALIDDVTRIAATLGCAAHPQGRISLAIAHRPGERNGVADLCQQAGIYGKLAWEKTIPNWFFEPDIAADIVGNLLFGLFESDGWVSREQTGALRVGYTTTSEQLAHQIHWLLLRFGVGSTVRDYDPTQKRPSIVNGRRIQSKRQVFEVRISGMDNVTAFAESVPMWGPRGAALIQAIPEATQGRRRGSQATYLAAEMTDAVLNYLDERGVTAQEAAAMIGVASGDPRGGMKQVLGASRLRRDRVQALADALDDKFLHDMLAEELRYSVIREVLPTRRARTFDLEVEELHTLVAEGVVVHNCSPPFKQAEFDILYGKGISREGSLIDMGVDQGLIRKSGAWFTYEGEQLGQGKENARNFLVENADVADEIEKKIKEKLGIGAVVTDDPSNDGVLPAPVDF

[8] = target: T5, Heat shock factor protein 1 (Mus musculus, UniProt P38532); test: HSF1 potentiators in luciferase reporter cells, confirmation, cell-based, NIH3T3, luminescence, dose retest (AID 435004); format: functional;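 note: stress induced by proteasome inhibitor MG132 added 30 min after compound; luciferase reporter driven by HSF1 response element in NIH3T3 cells; actives raise luminescence as potentiators of the MG132 stress response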
T5 sequence (P38532 whole entry): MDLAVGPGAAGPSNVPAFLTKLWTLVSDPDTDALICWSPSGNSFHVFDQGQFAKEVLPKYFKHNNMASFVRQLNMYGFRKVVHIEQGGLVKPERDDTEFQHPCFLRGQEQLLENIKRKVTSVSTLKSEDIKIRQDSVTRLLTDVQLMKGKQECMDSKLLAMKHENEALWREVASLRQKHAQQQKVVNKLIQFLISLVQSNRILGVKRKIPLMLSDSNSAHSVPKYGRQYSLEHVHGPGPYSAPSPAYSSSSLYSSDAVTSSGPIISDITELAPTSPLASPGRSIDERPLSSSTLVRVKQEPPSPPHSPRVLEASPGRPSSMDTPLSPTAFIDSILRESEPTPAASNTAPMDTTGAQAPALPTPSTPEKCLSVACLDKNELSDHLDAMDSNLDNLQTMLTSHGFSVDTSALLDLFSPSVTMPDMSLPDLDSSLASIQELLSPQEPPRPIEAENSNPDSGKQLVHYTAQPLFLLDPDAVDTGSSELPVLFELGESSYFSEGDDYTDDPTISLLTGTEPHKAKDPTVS

Genome polyprotein = Genome polyprotein (dengue virus type 2, UniProt P29990); test: Dengue-2 NS5 methyltransferase inhibitors, primary screen, biochemical, confirmation dose response (AID 588689); format: functional
Streptokinase A = target: T6, Streptokinase A (Streptococcus pyogenes serotype M1, UniProt P10520); test: S. pyogenes streptokinase expression inhibitors, potency, dose response, plasminogen activation absorbance, OD405 (AID 1914); format: functional, Streptococcus pyogenes M1 GAS;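 note: secreted streptokinase activity via plasminogen activation per viability signal from cell pellet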
T6 sequence (P10520 whole entry): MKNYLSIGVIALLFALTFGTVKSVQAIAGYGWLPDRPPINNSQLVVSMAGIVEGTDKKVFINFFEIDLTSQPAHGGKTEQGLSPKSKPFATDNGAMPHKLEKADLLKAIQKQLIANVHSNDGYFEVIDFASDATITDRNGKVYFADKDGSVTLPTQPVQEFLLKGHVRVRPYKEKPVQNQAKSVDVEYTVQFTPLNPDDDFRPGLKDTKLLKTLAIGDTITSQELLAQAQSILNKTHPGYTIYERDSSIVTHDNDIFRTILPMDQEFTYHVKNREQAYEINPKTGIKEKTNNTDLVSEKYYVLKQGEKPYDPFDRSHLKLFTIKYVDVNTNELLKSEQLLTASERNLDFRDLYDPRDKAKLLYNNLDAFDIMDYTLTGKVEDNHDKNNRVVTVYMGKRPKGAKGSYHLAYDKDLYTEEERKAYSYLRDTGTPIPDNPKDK

Streptococcus = test: Group A Streptococcus viability loss, dose response, counter-screen for streptokinase expression inhibitor project, luminescence, BacTiterGlo (AID 1915); format: functional, organism-based;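 note: potency for reduction of bacterial viability or growth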
[9] = system: Streptococcus sp. 'group A'; test: growth inhibition of control SK(-) GAS strain, dose response, counter-screen for streptokinase expression inhibitor project, luminescence, kanamycin, BacTiterGlo, confirmation (AID 1900); format: functional, organism-based

Sequence of Induced myeloid leukemia cell differentiation protein Mcl-1 (Q07820 whole entry): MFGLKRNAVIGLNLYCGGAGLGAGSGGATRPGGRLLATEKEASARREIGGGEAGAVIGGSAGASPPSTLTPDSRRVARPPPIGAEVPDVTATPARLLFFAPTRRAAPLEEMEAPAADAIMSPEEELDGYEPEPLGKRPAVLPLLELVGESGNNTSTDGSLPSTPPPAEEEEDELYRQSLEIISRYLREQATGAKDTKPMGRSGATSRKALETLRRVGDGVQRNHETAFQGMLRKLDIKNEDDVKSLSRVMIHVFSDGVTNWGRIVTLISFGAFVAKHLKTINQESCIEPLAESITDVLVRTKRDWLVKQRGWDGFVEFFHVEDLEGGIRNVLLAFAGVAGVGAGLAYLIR
Sequence of Genome polyprotein (P29990 2492-3391 limits assumed): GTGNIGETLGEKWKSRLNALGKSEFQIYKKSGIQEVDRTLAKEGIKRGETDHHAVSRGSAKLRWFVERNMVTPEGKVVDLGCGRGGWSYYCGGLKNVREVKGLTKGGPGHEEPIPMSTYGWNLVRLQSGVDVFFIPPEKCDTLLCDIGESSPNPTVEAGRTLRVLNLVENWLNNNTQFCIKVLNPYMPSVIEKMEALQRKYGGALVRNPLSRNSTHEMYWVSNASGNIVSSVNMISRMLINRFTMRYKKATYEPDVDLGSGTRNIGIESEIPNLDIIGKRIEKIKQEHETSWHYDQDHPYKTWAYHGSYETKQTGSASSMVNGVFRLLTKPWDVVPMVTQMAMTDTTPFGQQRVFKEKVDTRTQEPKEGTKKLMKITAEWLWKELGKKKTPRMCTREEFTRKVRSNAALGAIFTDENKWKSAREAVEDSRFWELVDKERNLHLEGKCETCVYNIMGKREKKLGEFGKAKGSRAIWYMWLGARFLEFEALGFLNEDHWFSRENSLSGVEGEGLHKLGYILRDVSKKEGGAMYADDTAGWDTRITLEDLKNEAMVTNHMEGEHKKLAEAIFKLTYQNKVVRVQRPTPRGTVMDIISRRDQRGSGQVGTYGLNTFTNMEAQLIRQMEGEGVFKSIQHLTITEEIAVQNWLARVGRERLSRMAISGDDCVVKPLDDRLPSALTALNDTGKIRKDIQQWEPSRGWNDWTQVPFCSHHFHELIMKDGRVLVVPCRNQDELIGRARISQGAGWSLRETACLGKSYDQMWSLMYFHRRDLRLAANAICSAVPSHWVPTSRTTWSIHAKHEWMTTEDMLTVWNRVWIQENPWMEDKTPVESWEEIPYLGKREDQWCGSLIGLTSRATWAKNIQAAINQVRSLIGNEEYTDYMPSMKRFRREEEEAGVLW

COc1ccc(-c2ccc(OC)c([C@H]3[C@H]4C=CC[C@@H](C)[C@@H]4C(=O)N3Cc3ccccc3)c2)cc1C
IC50 [1]: > 80 µM (inactive)

CCN(CC)C(=O)c1ccc(S(=O)(=O)Cc2ccc(C)cc2)c([N+](=O)[O-])c1
IC50 [1]: > 80 µM (inactive)

O=P(Nc1cccc(Cl)c1)(Oc1ccccc1)Oc1ccccc1
IC50 [2]: 8.58 µM (not active)

C/C=C(/C)C(=O)OC1Cc2c(ccc3ccc(=O)oc23)OC1(C)C (stereo not given)
IC50 [1]: > 80 µM (inactive)

CCN(c1ccc(NC(=O)CCNC(=O)c2ccco2)cc1)C(C)C
IC50 [3]: 3.29 µM (not active)

CC(C)[C@H](N)c1nnc(SCC(=O)c2ccc(Cl)cc2)o1
IC50 [1]: > 80 µM (inactive)

Cc1ccc(C)c(NC(=O)c2cc(-c3ccccc3)nn2-c2ccccc2)c1
CC50 [4]: > 40 µM (active)
AC50 [5]: 33.9 µM (active)

O=C(COC(=O)c1c[nH]c(=O)[nH]c1=O)Nc1cccc([N+](=O)[O-])c1
IC50 [6]: > 20 µM (inactive)

CC1CN(Cc2csc(-c3ccc(Cl)cc3)n2)CC(C)O1 (stereo not given)
IC50 [2]: 13.2 µM (not active)

O=C(NCc1ccco1)C1CCN(C(=O)c2cc3sccc3n2Cc2ccc(Cl)cc2)CC1
IC50 [2]: 10.9 µM (not active)

CCOC(=O)c1c(NC(C)=O)sc2c1CCC(/C=N/CCCN(CC)CC)=C2Sc1ccccc1
AC50 [7]: 0.239 µM (active)
EC50 (Protein RecA): 0.229 µM (active)
EC50 [8]: 16.6 µM (active)

CC1CC(=O)C(C(C2=C(O)CC(C)CC2=O)c2ccccc2)=C(O)C1 (stereo not given)
IC50 (Genome polyprotein): 66.2 µM (active)

CCc1c(C)sc2nc3c(C(=O)N4CCOCC4)cc(C(=O)c4cc(F)ccc4O)cn3c(=O)c12
CC50 [4]: > 40 µM (active)

CN(C)c1ccc(/C=c2\sc3nc(-c4ccccc4)nn3c2=O)cc1
IC50 [3]: 5.67 µM (active)

CCn1nc(NC(=O)c2ccncc2)c2cc3cc(C)ccc3nc21
EC50 (Streptokinase A): > 150 µM (not active)
EC50 (Streptococcus): 11.4 µM (active)
CC50 [4]: > 40 µM (active)
EC50 [9]: 1.88 µM (active)

Cc1nc([N+](=O)[O-])c(Sc2nc3ccccc3[nH]2)n1Cc1ccccc1
AC50 [7]: 15.3 µM (active)
EC50 (Protein RecA): 12.3 µM (active)

CCOC(=O)C1CCCN(C(=O)CSc2ccc(NC(C)=O)cc2)C1 (stereo not given)
IC50 [2]: < 0.4 µM (not active)

Cc1nn(-c2ccccc2)c(O)c1/C=N/N1CCOCC1
AC50 [7]: 39.3 µM (active)
EC50 (Protein RecA): 31.7 µM (active)

O=C(Nc1ccn(Cc2ccccc2F)n1)c1ccc(COc2ccccc2Cl)cc1
CC50 [4]: > 40 µM (active)
AC50 [5]: 1.02 µM (active)

CN1C(=O)c2cccc3c(S(=O)(=O)Nc4ccccc4F)ccc1c23
IC50 [1]: > 80 µM (inactive)

Cc1c(Br)c([N+](=O)[O-])nn1CCCC(=O)Nc1c(C)n(C)n(-c2ccccc2)c1=O
IC50 [6]: > 20 µM (inactive)

CCOC(=O)c1c(NC(=O)c2ccc(C)cc2)sc2c1CC(C)(C)NC2(C)C
IC50 [6]: > 20 µM (inactive)

CCn1nc(C)c(/C=N/NC(=O)Cc2ccc(Cl)cc2)c1C
IC50 [3]: < 0.4 µM (not active)

Cc1cc(=O)oc2cc(Oc3ccc([N+](=O)[O-])cc3C(F)(F)F)ccc12
CC50 [4]: > 40 µM (active)

COc1cc(/C=C2\C(=N)N3N=C(N4CCOCC4)SC3=NC2=O)ccc1OC(=O)c1ccccc1
IC50 (Genome polyprotein): 80.1 µM (active)

O=C(Nc1ccc(Cl)cc1)N(Cc1nc(O)c2ccccc2n1)Cc1cccs1
CC50 [4]: > 40 µM (active)

Cn1c(=O)c(C(=O)NNC(=O)c2cccc(Cl)c2)c(O)c2ccccc21
CC50 [4]: > 40 µM (active)

Cc1cc(NC(=O)CSc2nc3ccsc3c(=O)n2CCCC(=O)NCCc2ccccc2)no1
IC50 [2]: 14.1 µM (not active)

COc1ccc(N(C(=O)COc2cccc(C)c2)S(=O)(=O)c2ccc(C)cc2)cc1
AC50 [7]: 4.29 µM (active)
EC50 (Protein RecA): 4.53 µM (active)

Clc1ccc2c(c1)CNc1c(ncnc1N1CCOCC1)O2
IC50 [6]: > 20 µM (inactive)
